Our source for the melting point values is a melting point compilation (Tetko et al.; mined from patent text by program, amines drawn as free bases though some values may be those of a salt).

The structures appear in SMILES notation.

As a reminder, the melting point is the temperature of the solid-liquid transition. On to `CC(C)(C)c1cc(C2CC(=O)N(c3ccccc3)C2=O)cc(C(C)(C)C)c1O` (stereo unspecified), for which the melting point is 204 °C.

As for `CC(C)(C)OC(=O)NCCNC(=O)c1ccc(Cl)cn1`, the melting point lay within 106 to 108 °C.

`CSc1nc(=O)cc(N)n1-c1ccc(Cl)cc1`: the melting point lay in the range of 180 to 182 °C.

For the compound `Nc1ccc2c(=O)n(Cc3ccccc3)c(=O)n(-c3ccccc3)c2n1`, the melting point lay within 261 to 262 °C.

`COc1ccc(Nc2ccc(OCc3ccccc3)cc2)c(C(=O)O)c1` returned a melting point of 167 to 168 °C.

As to `Cc1nc(-c2cccc(-n3cnc4cc(I)ccc43)c2)cs1`, the melting point lay in the range of 163 to 164 °C.

In the case of `CS(=O)(=O)OCCCCCCc1ccc(OCc2coc(/C=C/c3ccccc3)n2)cc1`, the melting point was 88 to 89 °C.

Compound `O=C(OCc1ccccc1)c1ccc(OCc2cccc(COc3ccc(C(=O)OCc4ccccc4)cc3Cl)c2)c(Cl)c1` displayed a melting point of 95.8 to 97 °C.

Regarding `COCc1cn(-c2cccc(C(F)(F)F)c2)nc(C(=O)N(C)OC)c1=O`, the melting point is 157 to 159 °C.

As to `Clc1cccc(Cl)c1CN1CCNc2ncc(I)cc21`, the melting point was above 200 °C.

`COc1ccc2c(C(=O)N3CCC[C@H]3C(=O)O)cc3cc4c(cc3c2c1)OCO4`: the melting point fell in the range of 207 to 208 °C.

Consider `CO/C=C(/C(=O)OC)c1ccccc1/C=C(\Cl)OC(=O)C1=C(c2ccccc2)S(=O)(=O)C(c2ccccc2)C1=O` (stereo unspecified), for which the melting point was 68 to 72 °C.

For `N#Cc1ccc(N2c3cc(Cl)ccc3C(=O)OC23CCNCC3)cc1`, the melting point was 183 to 185 °C.

For the compound `O=C(Nc1ccc(-n2nc(C(F)(F)F)cc2C(F)(F)F)cc1)c1cccc(Br)c1`, the melting point is 158 to 160 °C.

Regarding `O=C(O)c1c(Br)c(Br)c([N+](=O)[O-])c2c1OCCO2`, the melting point is 238 °C.

`O=CC=C(Cl)c1cccc([N+](=O)[O-])c1` registered a melting point of 83 °C.

`COc1cc2nc(-c3ccc(Cl)cc3)nc(Cl)c2cc1OC` had a melting point of 204 to 206 °C.

`CCN(CC)CCC(=O)Nc1ccc([N+](=O)[O-])cc1` displayed a melting point of 86 to 88 °C.

With `CCCCCCCCCCCCCCCCOC(=O)OC(C)=CC(C)=O`, the melting point is 33 to 35 °C.

As for `CCSc1ccc(OC(C)c2ccnc3ncnn23)cc1` (stereo unspecified), the melting point lay in the range of 65 to 67 °C.

`Cc1ccc([N+](=O)[O-])cc1/C=C/c1nc(C(C)C)cs1`: the melting point was in the range of 87 to 88 °C.

On to `COC(=O)N[C@H]1Cc2ccc(N)cc2C1`, for which the melting point was 140 to 142 °C.

`COc1ccc(NC(=O)N=C2CCCN2C)cc1OC` registered a melting point of 118 to 120 °C.

For `CS(=O)(=O)C(=C1CN(C(c2ccccc2)c2ccccc2)C1)c1ccc(F)cc1`, the melting point is 186 °C.

In turn, `O=C(c1ccc2nonc2c1)N1CCOCC1` displayed a melting point of 148 to 150 °C.

The compound `CC1(C)CC(=O)C2=C(C1)NC1=C(C(=O)CC(C)(C)C1)C2c1c(F)cc(F)cc1F` displayed a melting point above 300 °C.

On to `CCN1C(=O)N=NC1c1cccc(F)c1` (stereo unspecified), for which the melting point is 135 to 140 °C.

`COc1cccc(Oc2cccc(-c3cccc(C(=O)NCCC#N)c3)n2)c1`: the melting point lay within 85 to 86 °C.

Compound `N#Cc1cccc2c1CC(Br)C2=O` (stereo unspecified) gave a melting point of 124 °C.

In the case of `COCC1CN=C(c2ccc(OCCCCCCCc3cc(C)no3)cc2)O1` (stereo unspecified), the melting point is 53 to 55 °C.

On to `O=C(CN1CCN(c2ccc(CO)c(Cl)c2)CC1)c1cc2ccccc2o1`, for which the melting point was 169 to 172 °C.

In turn, `CC(C)(C)OC(=O)NCCOc1noc2ccc(F)c(C#N)c12` returned a melting point of 116 to 117 °C.

`Cc1ccsc1C(=O)C(=CN(C)C)c1ccc(C(F)(F)F)cc1[N+](=O)[O-]` returned a melting point of 118 °C.

With `Nc1nc(Cl)nc2c1ncn2C1OC(CO)C(O)C1F` (stereo unspecified), the melting point fell in the range of 225 to 226 °C.

Compound `Cc1nc2c(O[C@@H]3c4ccccc4CC[C@H]3O)cccn2c1CC#N` (relative stereo) came in with a melting point of 154 to 155 °C.

`CNc1nnc(-c2ccc3occ(-c4ccc(OC(F)(F)F)cc4)c3c2)o1` had a melting point of 184 to 185 °C.

In turn, `O=C(NCc1ccc(Cl)cc1)c1cnc2c(O)cccc2c1O` yielded a melting point of 319 to 320 °C.

With `COc1cccc(COc2ncc(F)c(NS(N)(=O)=O)n2)c1`, the melting point was in the range of 126 to 130 °C.

For the compound `COC1=C(OC)C(=O)C2=C(CC(CCCCOc3ccc(C(=O)N4CCC(c5ccccc5)CC4)cc3)C2)C1=O`, the melting point is 90 to 94 °C.

The compound `CC(=O)NC(C)Cc1cc2c(cc1CCl)OCO2` (stereo unspecified) gave a melting point of 132 to 133 °C.

The compound `CCn1ncc2c3onc(-c4cccc(Cl)c4)c3cnc21` gave a melting point of 178 to 179 °C.

Regarding `CN(C)CCC(C(=O)O)c1cccc2ccccc12` (stereo unspecified), the melting point fell in the range of 130 to 135 °C.

For the compound `CCCCCCCCOc1ccc(-c2ncc(Br)cn2)c(F)c1`, the melting point came to 7.16 °C.

Compound `COC(=O)C(O)(c1ccc(OC)cc1)c1ccc(OC)cc1` yielded a melting point of 110 °C.

`CCOC(=O)CNc1ncccc1NC(=O)c1ccccc1` yielded a melting point of 115 to 116 °C.

In turn, `CC(C)N(C(=O)n1oc(=O)n(C)c1=O)c1ccc(Cl)cc1` returned a melting point of 121 to 123 °C.

In turn, `COCc1cc(-n2cc(-c3ccc(-c4ccco4)cc3)c(C(F)(F)F)n2)ccc1S(C)(=O)=O` gave a melting point of 142 to 143 °C.

As to `CCOC(=O)Cc1ccc(OCc2ccc3oc([N+](=O)[O-])c(-c4ccccc4)c3c2)cc1`, the melting point fell in the range of 74 to 75 °C.

Regarding `O=CNc1nc(SCc2ccccc2)nn1-c1ccccc1`, the melting point came out at 94 °C.

For the compound `CCOc1cc(NC(=O)C2=C(C(=O)N(CC)CC)CCCC2)ccc1Cl`, the melting point is 98 to 100 °C.

`COC(=O)c1ccc(Cc2csc3ccc(NC(=O)OC4CCCC4)cc23)c(OC)c1` registered a melting point of 163 to 164 °C.

`COC1CSC2=C(SC1)C(OC(=O)N1CCN(C(=O)C(C)C)CC1)N(c1ccc3ccc(Cl)nc3n1)C2=O` (stereo unspecified) had a melting point of 232 °C.

`Cc1cc(Oc2ccc(NC(=O)N(C)C)cc2)nc(Cl)n1`: the melting point was 176 to 178 °C.

Turning to `CCCc1nc2c(N)nc3ccccc3c2n1CC1(O)CCS(=O)(=O)CC1`, the melting point is above 250 °C.

The compound `CC(=O)Nc1ccc(-c2nnn(-c3ccc(C(F)(F)F)cc3F)c2N)cc1` came in with a melting point of 115 to 116 °C.

`CCNc1cccnc1N1CCN(C(=O)c2ccc(C(=O)OC)cn2)CC1`: the melting point fell in the range of 80 to 81 °C.

On to `O=S1(=O)NCc2ccccc2N1`, for which the melting point is 178 to 180 °C.

`O=Cc1cc2c(cc1O)CCO2` displayed a melting point of 102 to 104 °C.

`CC(=O)N(C(C)=O)c1c(C#N)cnn1-c1c(F)cc(F)c(F)c1F`: the melting point lay within 132 to 134 °C.

Consider `O=C(O)c1cn(-c2cccc(OC(F)(F)F)c2)cn1`, for which the melting point is 173 to 175 °C.

`C=CCS(=O)(=O)c1cccnc1S(=O)(=O)NC(=O)Nc1nc(OC)cc(OC)n1` had a melting point of 185 °C.

In turn, `O=c1c2c(Cc3ccccc3OC(F)(F)F)n[nH]c2c2cccnc2n1-c1cccc(C(F)(F)F)c1` registered a melting point of 247 to 252 °C.

For `CC(CN(C)C)OC(=O)c1ccc(NC(=O)CCn2cnc3c(=O)[nH]cnc32)cc1` (stereo unspecified), the melting point is 270 to 275 °C.

On to `COc1ccc(S(=O)(=O)C2(C(=O)NO)CCN(C)CC2)cc1`, for which the melting point came to 89 °C.

`CON=C(C(=O)OC)c1ccc(O)c([N+](=O)[O-])c1` displayed a melting point of 93 to 95 °C.

`c1ccc(NCP2CN(c3ccccc3)CN(c3ccccc3)C2)cc1` yielded a melting point of 96 to 97 °C.

For `CN(C)c1cccc(Oc2ccccc2N2CCN(CCCc3c[nH]c4ccccc34)CC2)c1`, the melting point is 156 to 162 °C.

`COC(=O)Cn1c(=O)c2ccccc2n(CCCN2CCC(OC(c3ccccc3)c3ccccc3)CC2)c1=O` yielded a melting point of 109 to 110 °C.

On to `CCCC(=O)NC1CCc2ccccc2C1` (stereo unspecified), for which the melting point was in the range of 78 to 81 °C.

The compound `COC(=O)c1cc(C(=O)c2cccc(Cl)c2)cn1C` displayed a melting point of 126 °C.

For `CN(CC(=C1NCCCS1)[N+](=O)[O-])c1ccccc1`, the melting point lay within 105 to 106 °C.

`CCOC(=O)CNC(=O)c1ncc(O)cc1O` returned a melting point of 96 to 98 °C.

`C(=C\c1nc(COc2ccc(CCCCn3ccnn3)cc2)co1)/c1ccccc1` showed a melting point of 125 to 126 °C.

With `CCN(CC)C(=O)c1cc2cc(Br)ccc2o1`, the melting point is 79 to 81 °C.

`Cc1nnc(N2C(=O)C(O)=C(C(=O)c3ccc(C(C)C)cc3)C2c2ccc(OC(F)(F)F)cc2)s1` (stereo unspecified) had a melting point of 260 °C.

`O=C(NC(Cc1ccccc1)C(=O)O)c1ccc2cc(NCc3ccccc3)ccc2c1` (stereo unspecified) yielded a melting point of 172 °C.

`O=C(Nc1cccc(Cl)c1)NN1CC=CCC1` yielded a melting point of 146 to 147 °C.

`CC1(C)CC(O)CC(C)(C)N1N=Nc1ccccc1Br`: the melting point amounted to 81 °C.

For `Cc1noc(NS(=O)(=O)c2ccccc2-c2ccc(-c3ncco3)cc2CNC(C)C(F)(F)F)c1C` (stereo unspecified), the melting point lay within 60 to 70 °C.

With `CNC(=O)c1ccc(N2CC(CNC(C)=S)OC2=O)cc1F` (stereo unspecified), the melting point lay within 176 to 177 °C.

In turn, `Clc1cc(Cl)nc(N2CCOCC2)n1` displayed a melting point of 140 °C.

`Clc1cc2cc[nH]c2c(Cl)c1Cl` had a melting point of 97.5 to 98 °C.

Consider `O=C(NC1CCCCC1)c1ccc(CO)cc1`, for which the melting point was 185 °C.

In turn, `O=C(O)C1CCC(Nc2nccc(-n3nnc4c(I)cccc43)n2)CC1` (stereo unspecified) returned a melting point of 252 to 254 °C.

Turning to `COc1ccc(C(=O)c2cc(Br)ccc2N)cc1`, the melting point is 120 °C.

In turn, `Cc1c(Cl)nc(NC=O)nc1Cl` displayed a melting point of 123 to 124 °C.

`COC(=O)[C@H]1C[C@H](n2c(Br)c(-c3cccc(OCc4ccccc4)c3)c3c(N)ncnc32)C1` showed a melting point of 124 to 125 °C.

As for `CCCCCN1CCN(c2nc(C)c(C(=O)NCc3cccnc3)s2)C1=O`, the melting point was in the range of 102 to 103 °C.

As for `Cc1cc(-n2cncn2)ncc1[N+](=O)[O-]`, the melting point lay in the range of 198 to 200 °C.

`CSc1cc(=O)c2cc(OC(=O)OC(C)(C)C)c(OC(=O)OC(C)(C)C)cc2s1` returned a melting point of 110 to 111 °C.

As to `CCOC(=O)NC(=S)NCC(C)C`, the melting point fell in the range of 50 to 52 °C.
